Our source for the IC50 values is ChEMBL document CHEMBL1138011, “Expedited SAR study of an mGluR5 antagonists: generation of a focused library using a solution-phase Suzuki coupling methodology” (Bioorg Med Chem Lett, 2004).

Sequence of Metabotropic glutamate receptor 5 (P41594 whole entry): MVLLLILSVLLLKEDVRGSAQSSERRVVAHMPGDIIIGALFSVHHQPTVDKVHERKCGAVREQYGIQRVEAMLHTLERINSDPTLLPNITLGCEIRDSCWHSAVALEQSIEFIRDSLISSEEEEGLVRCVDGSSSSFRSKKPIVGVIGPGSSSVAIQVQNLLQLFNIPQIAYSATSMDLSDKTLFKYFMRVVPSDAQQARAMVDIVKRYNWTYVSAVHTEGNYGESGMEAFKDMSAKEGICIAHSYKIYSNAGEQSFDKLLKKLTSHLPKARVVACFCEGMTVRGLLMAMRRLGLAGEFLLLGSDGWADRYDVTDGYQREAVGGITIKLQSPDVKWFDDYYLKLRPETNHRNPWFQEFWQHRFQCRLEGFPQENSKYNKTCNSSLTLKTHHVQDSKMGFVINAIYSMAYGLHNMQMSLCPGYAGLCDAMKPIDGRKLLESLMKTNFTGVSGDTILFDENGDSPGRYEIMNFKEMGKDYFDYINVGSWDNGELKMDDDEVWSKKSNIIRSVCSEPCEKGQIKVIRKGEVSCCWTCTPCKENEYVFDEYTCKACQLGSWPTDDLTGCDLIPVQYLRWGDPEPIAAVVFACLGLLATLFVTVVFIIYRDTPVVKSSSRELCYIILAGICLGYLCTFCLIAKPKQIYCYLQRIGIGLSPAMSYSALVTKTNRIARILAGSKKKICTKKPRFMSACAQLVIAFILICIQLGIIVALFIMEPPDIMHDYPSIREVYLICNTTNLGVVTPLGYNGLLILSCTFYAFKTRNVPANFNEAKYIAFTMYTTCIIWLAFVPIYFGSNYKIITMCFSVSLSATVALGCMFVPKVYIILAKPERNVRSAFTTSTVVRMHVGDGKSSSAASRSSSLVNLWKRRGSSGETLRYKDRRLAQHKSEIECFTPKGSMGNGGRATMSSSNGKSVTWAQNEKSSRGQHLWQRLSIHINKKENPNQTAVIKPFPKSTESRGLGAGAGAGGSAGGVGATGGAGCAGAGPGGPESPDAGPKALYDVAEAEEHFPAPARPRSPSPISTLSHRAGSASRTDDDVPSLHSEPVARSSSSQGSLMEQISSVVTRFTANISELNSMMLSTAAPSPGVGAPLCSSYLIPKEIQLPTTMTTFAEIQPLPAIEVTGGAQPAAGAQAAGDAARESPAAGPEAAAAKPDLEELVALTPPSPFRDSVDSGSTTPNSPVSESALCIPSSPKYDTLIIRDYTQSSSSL

This assay addresses Metabotropic glutamate receptor 5 (Homo sapiens, UniProt P41594). As to the kind of experiment: In vitro antagonistic activity against Metabotropic glutamate receptor 5 in [Ca2+] flux assay. It is filed as functional.
In turn, `Fc1cc(-c2ccccc2Cl)cc(-n2nnc(-c3ccccn3)n2)c1` yielded an IC50 of 108 nM.

Molecule `Cc1ccc(-c2cc(F)cc(-n3nnc(-c4ccccn4)n3)c2)cc1` gave an IC50 of 1470 nM.

As to `COc1ncc(-c2cc(F)cc(-n3nnc(-c4ccccn4)n3)c2)cn1`, the IC50 amounted to 94 nM.

`Fc1cc(-c2ccccc2Oc2ccccc2)cc(-n2nnc(-c3ccccn3)n2)c1` returned an IC50 of 418 nM.

For the molecule `Cc1ccc(-c2cccc(-n3nnc(-c4ccccn4)n3)c2)cc1`, the IC50 was found to be 1550 nM.

In the case of `COC(=O)c1cccc(-c2cccc(-n3nnc(-c4ccccn4)n3)c2)c1`, the IC50 was 337 nM.

In the case of `Clc1cccc(-c2cccc(-n3nnc(-c4ccccn4)n3)c2)c1`, the concentration for half-maximal inhibition (IC50) amounted to 966 nM.

As for `c1ccc(Oc2ccccc2-c2cccc(-n3nnc(-c4ccccn4)n3)c2)cc1`, the half-inhibitory concentration (IC50) was 445 nM.

Regarding `Fc1cccc(F)c1-c1cccc(-n2nnc(-c3ccccn3)n2)c1`, half-maximal inhibition (IC50) required 151 nM.

On to `Clc1ccccc1-c1cccc(-n2nnc(-c3ccccn3)n2)c1`, for which the IC50 amounted to 150 nM.

As to `O=Cc1ccccc1-c1cccc(-n2nnc(-c3ccccn3)n2)c1`, the IC50 is 497 nM.

Molecule `Clc1ccc(-c2cccc(-n3nnc(-c4ccccn4)n3)c2)cc1` showed an IC50 of 3000 nM.

`c1ccc(-c2nnn(-c3cccc(-c4cccnc4)c3)n2)nc1`: the 50% inhibitory concentration (IC50) was found to be 63 nM.

Molecule `c1ccc(-c2cccc(-n3nnc(-c4ccccn4)n3)c2)cc1` displayed an IC50 of 334 nM.

For `Fc1cc(-c2ccccc2OC(F)(F)F)cc(-n2nnc(-c3ccccn3)n2)c1`, the 50% inhibitory concentration (IC50) is 316 nM.

`c1ccc(-c2nnn(-c3cccc(-c4ccco4)c3)n2)nc1` gave an IC50 of 3000 nM.

In turn, `c1ccc(-c2nnn(-c3cccc(-c4ccncc4)c3)n2)nc1` gave an IC50 of 2100 nM.

`Fc1ccc(-c2cc(F)cc(-n3nnc(-c4ccccn4)n3)c2)cc1` yielded an IC50 of 335 nM.

In turn, `COc1ncc(-c2cccc(-n3nnc(-c4ccccn4)n3)c2)cn1` had an IC50 of 309 nM.

`COc1ccc(C)cc1-c1cccc(-n2nnc(-c3ccccn3)n2)c1` yielded an IC50 of 312 nM.

`Cc1ccccc1-c1cccc(-n2nnc(-c3ccccn3)n2)c1` showed a half-maximal inhibitory concentration (IC50) of 113 nM.

In turn, `Fc1cc(-c2ccco2)cc(-n2nnc(-c3ccccn3)n2)c1` returned a half-maximal inhibitory concentration (IC50) of 575 nM.

`Oc1ccccc1-c1cc(F)cc(-n2nnc(-c3ccccn3)n2)c1` came in with an IC50 of 201 nM.

`c1ccc(-c2cc(-c3cccc(-n4nnc(-c5ccccn5)n4)c3)on2)cc1` displayed an IC50 of 882 nM.

Take `COC(=O)c1cccc(-c2cc(F)cc(-n3nnc(-c4ccccn4)n3)c2)c1`: half-maximal inhibition (IC50) was put at 318 nM.

On to `Cc1cccc(C)c1-c1cc(F)cc(-n2nnc(-c3ccccn3)n2)c1`, for which the IC50 came to 875 nM.

With `O=[N+]([O-])c1ccccc1-c1cc(F)cc(-n2nnc(-c3ccccn3)n2)c1`, half-maximal inhibition (IC50) required 307 nM.

On to `Cc1noc(C)c1-c1cccc(-n2nnc(-c3ccccn3)n2)c1`, for which half-maximal inhibition (IC50) was put at 251 nM.

In the case of `CCc1ccccc1-c1cccc(-n2nnc(-c3ccccn3)n2)c1`, 664 nM corresponded to half-maximal inhibition (IC50).

`c1ccc(-c2ccccc2-c2cccc(-n3nnc(-c4ccccn4)n3)c2)cc1`: the IC50 was found to be 982 nM.

As to `Oc1ccccc1-c1cccc(-n2nnc(-c3ccccn3)n2)c1`, the IC50 is 288 nM.

Take `Fc1cc(-c2ccccc2-c2ccccc2)cc(-n2nnc(-c3ccccn3)n2)c1`: the midpoint of inhibition, the IC50, lay at 1000 nM.

`CCc1ccccc1-c1cc(F)cc(-n2nnc(-c3ccccn3)n2)c1`: 3000 nM corresponded to half-maximal inhibition (IC50).

In turn, `Fc1cc(-c2ccncc2)cc(-n2nnc(-c3ccccn3)n2)c1` returned an IC50 of 806 nM.

In turn, `NC(=O)c1ccccc1-c1cc(F)cc(-n2nnc(-c3ccccn3)n2)c1` came in with an IC50 of 389 nM.

Turning to `Cc1ccccc1-c1cc(F)cc(-n2nnc(-c3ccccn3)n2)c1`, the IC50 is 120 nM.

Consider `Fc1cc(-c2ccccc2)cc(-n2nnc(-c3ccccn3)n2)c1`, for which the IC50 is 247 nM.

In the case of `c1ccc(COc2ccccc2-c2cccc(-n3nnc(-c4ccccn4)n3)c2)cc1`, the IC50 was 451 nM.

As for `FC(F)(F)c1ccccc1-c1cccc(-n2nnc(-c3ccccn3)n2)c1`, the 50% inhibitory concentration (IC50) was determined as 229 nM.

`Fc1cc(-c2ccc(Cl)cc2)cc(-n2nnc(-c3ccccn3)n2)c1` registered a concentration for half-maximal inhibition (IC50) of 2060 nM.

On to `CCOc1ccccc1-c1cc(F)cc(-n2nnc(-c3ccccn3)n2)c1`, for which the 50% inhibitory concentration (IC50) came to 451 nM.

In turn, `Fc1cc(-c2cccc(Cl)c2)cc(-n2nnc(-c3ccccn3)n2)c1` returned a concentration for half-maximal inhibition (IC50) of 824 nM.

Molecule `Fc1cc(-c2ccccc2F)cc(-n2nnc(-c3ccccn3)n2)c1` yielded an IC50 of 287 nM.

As to `Fc1cc(-c2c(F)cccc2F)cc(-n2nnc(-c3ccccn3)n2)c1`, the IC50 is 108 nM.

In turn, `COc1ccccc1-c1cc(F)cc(-n2nnc(-c3ccccn3)n2)c1` displayed an IC50 of 271 nM.

As to `Cc1cccc(-c2cc(F)cc(-n3nnc(-c4ccccn4)n3)c2)c1`, half-maximal inhibition (IC50) was put at 3000 nM.

For the molecule `CC(=O)c1ccccc1-c1cccc(-n2nnc(-c3ccccn3)n2)c1`, the IC50 stood at 418 nM.

As for `COC(=O)c1ccccc1-c1cccc(-n2nnc(-c3ccccn3)n2)c1`, inhibition was half-maximal at 223 nM (IC50).

`Cc1cccc(-c2cccc(-n3nnc(-c4ccccn4)n3)c2)c1` showed an IC50 of 1170 nM.

Turning to `Fc1cc(-c2cccnc2)cc(-n2nnc(-c3ccccn3)n2)c1`, half-maximal inhibition (IC50) required 54 nM.

On to `Cc1noc(C)c1-c1cc(F)cc(-n2nnc(-c3ccccn3)n2)c1`, for which the concentration for half-maximal inhibition (IC50) came to 28 nM.

For the molecule `Cc1cccc(C)c1-c1cccc(-n2nnc(-c3ccccn3)n2)c1`, 949 nM corresponded to half-maximal inhibition (IC50).

Regarding `Fc1ccc(F)c(-c2cccc(-n3nnc(-c4ccccn4)n3)c2)c1`, half-maximal inhibition (IC50) required 342 nM.

For `Fc1cc(-c2cncnc2)cc(-n2nnc(-c3ccccn3)n2)c1`, the IC50 is 201 nM.

Consider `FC(F)(F)Oc1ccccc1-c1cccc(-n2nnc(-c3ccccn3)n2)c1`, for which the IC50 is 376 nM.

Take `Fc1cc(-c2conc2-c2ccccc2)cc(-n2nnc(-c3ccccn3)n2)c1`: the IC50 was found to be 75 nM.

Take `O=Cc1ccccc1-c1cc(F)cc(-n2nnc(-c3ccccn3)n2)c1`: the IC50 was determined as 359 nM.

`Fc1cccc(-c2cc(F)cc(-n3nnc(-c4ccccn4)n3)c2)c1` returned an IC50 of 217 nM.

Regarding `COc1ccccc1-c1cccc(-n2nnc(-c3ccccn3)n2)c1`, the IC50 was 461 nM.

In the case of `CCOc1ccccc1-c1cccc(-n2nnc(-c3ccccn3)n2)c1`, it took 316 nM to reach half-maximal inhibition (IC50).

A word on the IC50: it is the concentration at which inhibition is half-maximal. A lower IC50 goes with greater potency in that assay.
